Test results: PubChem BioAssay AID2060894 (Molecular Pharmacology Branch, DTP, NCI, 2025)

System: K12877-001-R-J1-PDC complex spheroid viability
Experiment: Anticancer human tumor K12877-001-R-J1-PDC patient-derived lung adenocarcinoma cell line growth inhibition [RAS]
Conditions: for IC50: curve of first compound; for viability, T/C: stronger effect = lower value
Text: RAS pathway inhibitors in Combinations in Complex Spheroids
A high-throughput screen of multi-cell type tumor spheroids was designed to identify active combinations of RAS pathway inhibitors and targeted small molecules. Complex spheroids include a stromal component modeled by human endothelial cells (HUVEC) and fibroblasts modeled by human mesenchymal stem cells (MSCs). The concentration ranges selected for each drug and investigational agent were based upon clinically achievable concentrations if the clinical Cmax of the agent was known.
Compounds. The drugs and investigational agents: abemaciclib (NSC768073), cobimetinib (NSC768068), divarasib (GDC6063, NSC841802), docetaxel (NSC628503), GDC-1971 (RLY-1971, NSC841576), gemcitabine (NSC613327), inavolisib (NSC800729), ipatasertib (NSC767898), KB-0742 (NSC834161), MRTX-1133 (NSC836407), osimertinib (NSC779217), RMC-4630 (NSC839698), RMC-6236 (NSC851965), RMC-6291 (NSC852671), Ro-3306 (NSC812927), sapanisertib (NSC764658), SN-38 (NSC673596), staurosporine (NSC755774), SY5609 (NSC837396), and tovorafenib (DAY101, NSC766906), were obtained from the National Cancer Institute (NCI) Developmental Therapeutics Program Chemical Repository. The FDA-approved anticancer drug set is available from the NCI Developmental Therapeutics Program. […] The stock solutions were prepared in dimethyl sulfoxide (DMSO, Sigma-Aldrich, St. Louis, MO, cat. D2650) at 800-fold the tested concentration and stored at -70 degrees C prior to their use. All drugs and investigational agents were tested over a range starting from a high concentration at or near the clinical Cmax and decreasing in half-log increments. If the clinical Cmax for an agent had not been determined, the highest concentration tested was 10 microM.
Cell Culture. All cells were maintained in an incubator at 37 degrees C and 5% CO2 with 95% humidity. The PDC lines were cultured according to standard operating procedures established by the NCI PDMR. All PDCs were thawed and cultured in Matrigel-coated flasks prepared with a working solution of 1X Ham's F-12 nutrient mix, without supplementation (Invitrogen, Waltham, MA, cat. 11765054), 100 U/mL penicillin-streptomycin (Invitrogen, cat. 15140122), and 2.5% Matrigel (Corning Inc., Corning, NY, cat. 354248) for the first three passages. The 362531-283-R-J2-PDC and 782815-120-R-J1-PDC lines were cultured in 6C/Colon 1B media, which includes advanced DMEM/F-12 (Thermo Fisher Scientific, cat. 12634028), 10 mM HEPES (Thermo Fisher Scientific, cat. 15630080), 1X GlutaMAX supplement (Thermo Fisher Scientific, cat. 35050061), 0.1 mg/mL primocin (InvivoGen, San Diego, CA, cat. ant-pm-2), 10% defined fetal bovine serum, heat inactivated (HyClone Laboratories Inc., Logan, UT, cat. SH30070.03HI), 50% L-WRN conditioned media (ATCC, cat. CRL-3276), 1.25 mM N-Acetyl-L-cysteine (Sigma-Aldrich, cat. A9165), 10 mM nicotinamide (Sigma-Aldrich, cat. N0636), 1X B-27 supplement (Thermo Fisher Scientific, cat. 17504044), 1X N-2 supplement (Thermo Fisher Scientific, cat. 17502048), 50 ng/mL human EGF (Thermo Fisher Scientific, cat. PHG0311), and 10 microM Y-27632 dihydrochloride (Tocris Bioscience, cat. 1254). The K12877-001-R-J1-PDC line was cultured in 6I media, which includes all 6C/Colon 1B media plus 10 ng/mL human FGF-10 (PeproTech, cat. 100-26), 1 ng/mL human FGF-2 (PeproTech, cat. 100-18B), 1 µM prostaglandin E2 (Tocris Bioscience, cat. 2296), […] hydrocortisone (Sigma-Aldrich, cat. H4001), and […] bovine insulin (Sigma-Aldrich, cat. I6634). The K86415-001-R-J1-PDC line was cultured in 6D media, which includes all 6C/Colon 1B media components minus the L-WRN conditioned media. The 485176-168-R4-J1-PDC was cultured in PANC media, which includes all 6C/Colon 1B media plus 100 ng/mL human FGF-10 (PeproTech, cat. 100-26), 500 nM SB-431542 (Selleckchem, cat. S1067), and 10 nM gastrin (Tocris Bioscience, cat. 3006). […]

[1] = second compound 0.0316 µM, first compound 0.0316 µM
[2] = second compound 0.0316 µM, first compound 0.1 µM
[3] = second compound 0.0316 µM, first compound 0.316 µM
[4] = second compound 0.0316 µM, first compound 1 µM
[5] = second compound 0.0316 µM, first compound 3.16 µM
[6] = second compound 0.0316 µM, first compound 10 µM
[7] = second compound 0.1 µM, first compound 0.0316 µM
[8] = second compound 0.1 µM, first compound 0.1 µM
[9] = second compound 0.1 µM, first compound 0.316 µM
[10] = second compound 0.1 µM, first compound 1 µM
[11] = second compound 0.1 µM, first compound 3.16 µM
[12] = second compound 0.1 µM, first compound 10 µM
[13] = second compound 0.316 µM, first compound 0.0316 µM
[14] = second compound 0.316 µM, first compound 0.1 µM
[15] = second compound 0.316 µM, first compound 0.316 µM
[16] = second compound 0.316 µM, first compound 1 µM
[17] = second compound 0.316 µM, first compound 3.16 µM
[18] = second compound 0.316 µM, first compound 10 µM
[19] = second compound 1 µM, first compound 0.0316 µM
[20] = second compound 1 µM, first compound 0.1 µM
[21] = second compound 1 µM, first compound 0.316 µM
[22] = second compound 1 µM, first compound 1 µM
[23] = second compound 1 µM, first compound 3.16 µM
[24] = second compound 1 µM, first compound 10 µM
[25] = second compound 3.16 µM, first compound 0.0316 µM
[26] = second compound 3.16 µM, first compound 0.1 µM
[27] = second compound 3.16 µM, first compound 0.316 µM
[28] = second compound 3.16 µM, first compound 1 µM
[29] = second compound 3.16 µM, first compound 3.16 µM
[30] = second compound 3.16 µM, first compound 10 µM
[31] = second compound 10 µM, first compound 0.0316 µM
[32] = second compound 10 µM, first compound 0.1 µM
[33] = second compound 10 µM, first compound 0.316 µM
[34] = second compound 10 µM, first compound 1 µM
[35] = second compound 10 µM, first compound 3.16 µM
[36] = second compound 10 µM, first compound 10 µM
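Also: spheroids exposed to agents for one week before readout.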

With Cc1nc(N2CCC3(CC2)COC(C)C3N)c(CO)nc1Sc1ccnc(N)c1Cl (stereo unspecified) + C#Cc1c(F)ccc2cc(O)cc(-c3ncc4c(N5CC6CCC(C5)N6)nc(OCC56CCCN5CC(F)C6)nc4c3F)c12 the IC50 (second compound 0.0316 µM) was over 10 µM, the IC50 (second compound 0.1 µM) was over 10 µM and the IC50 (second compound 0.316 µM) was over 10 µM. The IC50 (second compound 1 µM) was over 10 µM, the IC50 (second compound 3.16 µM) was over 10 µM and the IC50 (second compound 10 µM) was over 10 µM. The viability, T/C [1] was 94.3%, the viability, T/C [2] was 97% and the viability, T/C [3] was 99%. It also gave a viability, T/C [4] of 95.1%, a viability, T/C [5] of 103% and a viability, T/C [6] of 77.5%. For the same compound, the viability, T/C [7] was 109%, the viability, T/C [8] was 110% and the viability, T/C [9] was 92%. The viability, T/C [10] was 87.7%, the viability, T/C [11] was 93.5% and the viability, T/C [12] was 84.1%. The viability, T/C [13] was 107%, the viability, T/C [14] was 98.8% and the viability, T/C [15] was 91.2%. It also gave a viability, T/C [16] of 92.9%, a viability, T/C [17] of 78.5% and a viability, T/C [18] of 65.7%. It also gave a viability, T/C [19] of 101%, a viability, T/C [20] of 92.5% and a viability, T/C [21] of 93.1%. It also gave a viability, T/C [22] of 95.7%, a viability, T/C [23] of 82.9% and a viability, T/C [24] of 69.5%. It also gave a viability, T/C [25] of 100%, a viability, T/C [26] of 94% and a viability, T/C [27] of 92.4%. For the same compound, the viability, T/C [28] was 79.7%, the viability, T/C [29] was 79.7% and the viability, T/C [30] was 69.7%. The viability, T/C [31] was 93.6%, the viability, T/C [32] was 86.1% and the viability, T/C [33] was 83.9%. The viability, T/C [34] was 83.4%, the viability, T/C [35] was 86.9% and the viability, T/C [36] was 84.8%.
Compound NC1c2ccccc2OC12CCN(c1cnc3c(N4CCCc5ncccc54)n[nH]c3n1)CC2 (stereo unspecified) + C#Cc1c(F)ccc2cc(O)cc(-c3ncc4c(N5CC6CCC(C5)N6)nc(OCC56CCCN5CC(F)C6)nc4c3F)c12 has an IC50 (second compound 0.0316 µM) of over 10 µM, an IC50 (second compound 0.1 µM) of over 10 µM and an IC50 (second compound 0.316 µM) of over 10 µM. It also gave an IC50 (second compound 1 µM) of over 10 µM, an IC50 (second compound 3.16 µM) of over 10 µM and an IC50 (second compound 10 µM) of over 10 µM. It also gave a viability, T/C [1] of 104%, a viability, T/C [2] of 92.3% and a viability, T/C [3] of 86.8%. It also gave a viability, T/C [4] of 93.1%, a viability, T/C [5] of 85.3% and a viability, T/C [6] of 50.4%. For the same compound, the viability, T/C [7] was 106%, the viability, T/C [8] was 91.1% and the viability, T/C [9] was 90%. For the same compound, the viability, T/C [10] was 78.9%, the viability, T/C [11] was 84.2% and the viability, T/C [12] was 58.9%. It also gave a viability, T/C [13] of 98.4%, a viability, T/C [14] of 93.2% and a viability, T/C [15] of 88.5%. For the same compound, the viability, T/C [16] was 86.8%, the viability, T/C [17] was 74.2% and the viability, T/C [18] was 55.8%. For the same compound, the viability, T/C [19] was 105%, the viability, T/C [20] was 97.1% and the viability, T/C [21] was 86.8%. The viability, T/C [22] was 87.6%, the viability, T/C [23] was 71.2% and the viability, T/C [24] was 54.8%. For the same compound, the viability, T/C [25] was 99.7%, the viability, T/C [26] was 84.8% and the viability, T/C [27] was 104%. It also gave a viability, T/C [28] of 87.8%, a viability, T/C [29] of 72.7% and a viability, T/C [30] of 55.1%. For the same compound, the viability, T/C [31] was 90.4%, the viability, T/C [32] was 97.6% and the viability, T/C [33] was 102%. For the same compound, the viability, T/C [34] was 91.8%, the viability, T/C [35] was 64.9% and the viability, T/C [36] was 63.8%.
For Nc1ccn(C2OC(CO)C(O)C2(F)F)c(=O)n1 (stereo unspecified) + C#Cc1c(F)ccc2cc(O)cc(-c3ncc4c(N5CC6CCC(C5)N6)nc(OCC56CCCN5CC(F)C6)nc4c3F)c12, the IC50 (second compound 0.0316 µM) was 0.0187 µM, the IC50 (second compound 0.1 µM) was 0.017 µM and the IC50 (second compound 0.316 µM) was 0.0178 µM. It also gave an IC50 (second compound 1 µM) of 0.0176 µM, an IC50 (second compound 3.16 µM) of 0.0174 µM and an IC50 (second compound 10 µM) of 0.0162 µM. The viability, T/C (second compound 0.0316 µM, first compound 0.00316 µM) was 98.9%, the viability, T/C (second compound 0.0316 µM, first compound 0.01 µM) was 102% and the viability, T/C [1] was 7.92%. The viability, T/C [2] was 5.24%, the viability, T/C [3] was 5.93% and the viability, T/C [4] was 6.36%. For the same compound, the viability, T/C (second compound 0.1 µM, first compound 0.00316 µM) was 119%, the viability, T/C (second compound 0.1 µM, first compound 0.01 µM) was 85.9% and the viability, T/C [7] was 7.72%. It also gave a viability, T/C [8] of 5.87%, a viability, T/C [9] of 5.86% and a viability, T/C [10] of 5.63%. It also gave a viability, T/C (second compound 0.316 µM, first compound 0.00316 µM) of 102%, a viability, T/C (second compound 0.316 µM, first compound 0.01 µM) of 92.7% and a viability, T/C [13] of 7.04%. It also gave a viability, T/C [14] of 5.27%, a viability, T/C [15] of 5.95% and a viability, T/C [16] of 6.35%. The viability, T/C (second compound 1 µM, first compound 0.00316 µM) was 102%, the viability, T/C (second compound 1 µM, first compound 0.01 µM) was 88.8% and the viability, T/C [19] was 9.52%. It also gave a viability, T/C [20] of 5.65%, a viability, T/C [21] of 6.02% and a viability, T/C [22] of 6.24%. The viability, T/C (second compound 3.16 µM, first compound 0.00316 µM) was 106%, the viability, T/C (second compound 3.16 µM, first compound 0.01 µM) was 89% and the viability, T/C [25] was 8.02%. The viability, T/C [26] was 4.94%, the viability, T/C [27] was 5.19% and the viability, T/C [28] was 5.82%. The viability, T/C (second compound 10 µM, first compound 0.00316 µM) was 101%, the viability, T/C (second compound 10 µM, first compound 0.01 µM) was 79.4% and the viability, T/C [31] was 8.95%. For the same compound, the viability, T/C [32] was 5.43%, the viability, T/C [33] was 6.72% and the viability, T/C [34] was 5.24%.
